From ChEMBL document CHEMBL1201862, “PubChem BioAssay data set” (2004)
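Assay format: 96-well plates, 48-hour exposure. GI50 = concentration required for 50% inhibition of growth.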 Active and inactive are the calls of the source. Rule as the data show it: active = GI50 up to about 1.1 µM and inactive = higher.

Tests used:
Assay in all cases: NCI-60 cell line screen, 48 h
RXF 631 = system: RXF 631
M19-MEL = system: M19-MEL
SNB-78 = system: SNB-78
XF498 = system: XF498
DMS-114 = system: DMS-114
LXFL 529 = system: LXFL 529
DLD-1 = system: DLD-1
HOP-18 = system: HOP-18
DMS-273 = system: DMS-273

Structure (SMILES)	GI50 (RXF 631)	GI50 (M19-MEL)	GI50 (SNB-78)	GI50 (XF498)	GI50 (DMS-114)	GI50 (LXFL 529)	GI50 (DLD-1)	GI50 (HOP-18)	GI50 (DMS-273)
CCCOc1ccc(/C=C/c2cc(OC)c(OC)c(OC)c2)cc1	2.03 µM (inactive)	0.682 µM (active)	1.29 µM (inactive)	0.56 µM (active)	0.347 µM (active)	0.558 µM (active)	0.386 µM (active)	> 100 µM (inactive)	0.147 µM (active)
Nc1nc(SCc2ccccc2[N+](=O)[O-])c2[nH]cnc2n1		> 100 µM (inactive)	> 100 µM (inactive)			> 100 µM (inactive)	> 100 µM (inactive)		> 100 µM (inactive)
O=C(c1ccco1)N(C(=S)N1CCN(c2ccccc2)CC1)c1ccccc1		> 100 µM (inactive)	> 100 µM (inactive)		> 100 µM (inactive)	> 100 µM (inactive)	> 100 µM (inactive)	> 100 µM (inactive)	> 100 µM (inactive)
CNC(C)Cc1ccccc1O (stereo not given)			> 100 µM (inactive)		> 100 µM (inactive)	> 100 µM (inactive)	> 100 µM (inactive)	> 100 µM (inactive)	> 100 µM (inactive)
Cc1ccc2[nH]c3c4c5ccccc5nc-4c[nH]c3c2c1			17 µM (inactive)	21.4 µM (inactive)	16.1 µM (inactive)	19.2 µM (inactive)	15.5 µM (inactive)	14.9 µM (inactive)	
Cc1ccc(C(=O)C(C)N)cc1 (stereo not given)			> 100 µM (inactive)	> 100 µM (inactive)	> 100 µM (inactive)	> 100 µM (inactive)	> 100 µM (inactive)	> 100 µM (inactive)	> 100 µM (inactive)
COC(=O)C1=Cc2cc(OC)c(OC)cc2[C@H](c2ccc(OC)c(OC)c2)C1C(=O)OC (stereo not given in full)		> 100 µM (inactive)	> 100 µM (inactive)	> 100 µM (inactive)	> 100 µM (inactive)	> 100 µM (inactive)			> 100 µM (inactive)
CN1CC[C@]2(C)c3cc(O)ccc3CC3CCCC1C32C (stereo not given in full)	> 100 µM (inactive)	> 100 µM (inactive)	> 100 µM (inactive)	> 100 µM (inactive)	> 100 µM (inactive)	> 100 µM (inactive)	> 100 µM (inactive)	26.6 µM (inactive)	
Cc1nc(N)nc(N)c1CCCCc1ccc(N)cc1		8.55 µM (inactive)	9.46 µM (inactive)	11.4 µM (inactive)		6.46 µM (inactive)	6.43 µM (inactive)		
CC(=O)OCC1OC(n2c(=O)[nH]c(=O)c3nn[nH]c32)C(OC(C)=O)C(OC(C)=O)C1OC(C)=O (stereo not given)		> 100 µM (inactive)		> 100 µM (inactive)	> 100 µM (inactive)	> 100 µM (inactive)	> 100 µM (inactive)	76.7 µM (inactive)	> 100 µM (inactive)
O=C(O)C12C3CCC(C3)C1(C(=O)O)C1CCC2C1 (stereo not given)	> 100 µM (inactive)	92.5 µM (inactive)	> 100 µM (inactive)	> 100 µM (inactive)	33.9 µM (inactive)	> 100 µM (inactive)	24.7 µM (inactive)	> 100 µM (inactive)	> 100 µM (inactive)
CNC(=O)NCNC(=O)NC	> 100 µM (inactive)	> 100 µM (inactive)	> 100 µM (inactive)		> 100 µM (inactive)	> 100 µM (inactive)	> 100 µM (inactive)	> 100 µM (inactive)	> 100 µM (inactive)
CCO[C@]12C[C@H](OC)[C@@]3(O)CC(C1[C@H]3OCc1ccccc1)C13C4C2[C@H](OC)C1[C@](COC)(CN4CC)[C@H](O)C[C@@H]3OC (stereo not given in full)		> 100 µM (inactive)	> 100 µM (inactive)	> 100 µM (inactive)	> 100 µM (inactive)	> 100 µM (inactive)	> 100 µM (inactive)		> 100 µM (inactive)
